Laboratory results reported in ChEMBL document CHEMBL4392828, “Structural modification of indomethacin toward selective inhibition of COX-2 with a significant increase in van der Waals contributions” (Bioorg Med Chem, 2019).
Active and inactive are the calls of the source. The calls are words filed in the database; no cut-off is given here.

Molecular target: T1, Prostaglandin G/H synthase 1 (Ovis aries) (UniProt P05979)
T1 sequence (whole entry): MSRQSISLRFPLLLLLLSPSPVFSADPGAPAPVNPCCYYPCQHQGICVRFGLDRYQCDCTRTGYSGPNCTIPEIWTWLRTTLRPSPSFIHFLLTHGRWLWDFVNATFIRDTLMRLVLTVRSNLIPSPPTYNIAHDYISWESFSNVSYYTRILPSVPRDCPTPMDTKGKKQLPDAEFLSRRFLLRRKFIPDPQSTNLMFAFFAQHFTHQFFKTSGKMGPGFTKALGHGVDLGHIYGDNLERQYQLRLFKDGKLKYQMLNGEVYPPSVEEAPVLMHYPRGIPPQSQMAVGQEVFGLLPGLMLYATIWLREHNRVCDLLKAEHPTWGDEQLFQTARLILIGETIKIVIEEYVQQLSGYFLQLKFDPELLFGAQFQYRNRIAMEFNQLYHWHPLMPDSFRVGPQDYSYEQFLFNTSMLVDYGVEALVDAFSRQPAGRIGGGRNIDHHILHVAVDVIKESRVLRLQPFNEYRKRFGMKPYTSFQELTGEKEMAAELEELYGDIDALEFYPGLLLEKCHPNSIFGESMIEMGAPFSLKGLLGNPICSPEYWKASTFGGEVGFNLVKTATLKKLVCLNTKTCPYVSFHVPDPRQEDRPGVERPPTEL
Assay: Inhibition of ovine COX1 assessed as reduction in PGF2alpha production up to 2000 nM using arachidonic acid as substrate incubated for 10 mins by EIA method relative to indomethacin

**Q.** Which inhibition does the source give for `COc1ccc2c(c1)c(CC(=O)O)c(/C=C/C(F)(F)F)n2C(=O)c1ccc(Cl)cc1` here?
**A.** Its inhibition is “inactive”.
